In ChEMBL document CHEMBL1132535, “Design, synthesis, and evaluations of substituted 3-[(3- or 4-carboxyethylpyrrol-2-yl)methylidenyl]indolin-2-ones as inhibitors of VEGF, FGF, and PDGF receptor tyrosine kinases” (J Med Chem, 1999) one finds IC50 data, which are given here for 22 compounds.

For test [1], the target named is Fibroblast growth factor receptor 1 (Homo sapiens, UniProt P11362). Description: Inhibitory activity against Fibroblast growth factor receptor 1.
The target in test [2] is Epidermal growth factor receptor (Homo sapiens, UniProt P00533).
Test [3] has as its target Platelet-derived growth factor receptor beta (Homo sapiens, UniProt P09619).
Test [4] addresses Vascular endothelial growth factor receptor 2 (Homo sapiens, UniProt P35968).

pIC50: −log10 of the molar value.

Platelet-derived growth factor receptor beta, sequence (P09619 whole entry): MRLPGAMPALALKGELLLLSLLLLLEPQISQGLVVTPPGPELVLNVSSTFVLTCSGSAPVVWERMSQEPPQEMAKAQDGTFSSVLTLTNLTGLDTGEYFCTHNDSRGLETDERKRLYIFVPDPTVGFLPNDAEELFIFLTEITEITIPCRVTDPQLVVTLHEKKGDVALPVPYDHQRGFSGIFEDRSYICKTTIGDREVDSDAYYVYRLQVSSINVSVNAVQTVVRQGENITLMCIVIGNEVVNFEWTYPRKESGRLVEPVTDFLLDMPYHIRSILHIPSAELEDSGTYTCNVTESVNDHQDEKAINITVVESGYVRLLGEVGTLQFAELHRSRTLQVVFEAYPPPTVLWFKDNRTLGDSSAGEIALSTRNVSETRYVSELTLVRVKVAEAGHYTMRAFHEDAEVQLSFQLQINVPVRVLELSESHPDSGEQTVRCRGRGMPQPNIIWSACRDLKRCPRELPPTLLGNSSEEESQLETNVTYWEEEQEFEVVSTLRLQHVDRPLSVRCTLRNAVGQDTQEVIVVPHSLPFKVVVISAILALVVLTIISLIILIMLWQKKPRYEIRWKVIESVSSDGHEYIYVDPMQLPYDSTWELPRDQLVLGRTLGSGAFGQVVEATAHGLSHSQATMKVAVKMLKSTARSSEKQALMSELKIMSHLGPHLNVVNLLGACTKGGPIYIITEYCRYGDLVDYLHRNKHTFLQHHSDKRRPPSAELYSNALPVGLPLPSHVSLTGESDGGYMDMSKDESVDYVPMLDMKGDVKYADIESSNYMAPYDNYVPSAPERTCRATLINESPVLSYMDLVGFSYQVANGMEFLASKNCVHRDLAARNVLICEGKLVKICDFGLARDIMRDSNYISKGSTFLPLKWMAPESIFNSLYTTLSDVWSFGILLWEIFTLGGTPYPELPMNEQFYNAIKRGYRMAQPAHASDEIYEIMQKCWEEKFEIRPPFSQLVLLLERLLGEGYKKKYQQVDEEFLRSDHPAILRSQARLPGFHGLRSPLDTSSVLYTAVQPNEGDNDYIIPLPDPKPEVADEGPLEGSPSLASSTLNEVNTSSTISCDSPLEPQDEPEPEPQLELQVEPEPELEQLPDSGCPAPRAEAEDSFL
Vascular endothelial growth factor receptor 2, sequence (P35968 whole entry): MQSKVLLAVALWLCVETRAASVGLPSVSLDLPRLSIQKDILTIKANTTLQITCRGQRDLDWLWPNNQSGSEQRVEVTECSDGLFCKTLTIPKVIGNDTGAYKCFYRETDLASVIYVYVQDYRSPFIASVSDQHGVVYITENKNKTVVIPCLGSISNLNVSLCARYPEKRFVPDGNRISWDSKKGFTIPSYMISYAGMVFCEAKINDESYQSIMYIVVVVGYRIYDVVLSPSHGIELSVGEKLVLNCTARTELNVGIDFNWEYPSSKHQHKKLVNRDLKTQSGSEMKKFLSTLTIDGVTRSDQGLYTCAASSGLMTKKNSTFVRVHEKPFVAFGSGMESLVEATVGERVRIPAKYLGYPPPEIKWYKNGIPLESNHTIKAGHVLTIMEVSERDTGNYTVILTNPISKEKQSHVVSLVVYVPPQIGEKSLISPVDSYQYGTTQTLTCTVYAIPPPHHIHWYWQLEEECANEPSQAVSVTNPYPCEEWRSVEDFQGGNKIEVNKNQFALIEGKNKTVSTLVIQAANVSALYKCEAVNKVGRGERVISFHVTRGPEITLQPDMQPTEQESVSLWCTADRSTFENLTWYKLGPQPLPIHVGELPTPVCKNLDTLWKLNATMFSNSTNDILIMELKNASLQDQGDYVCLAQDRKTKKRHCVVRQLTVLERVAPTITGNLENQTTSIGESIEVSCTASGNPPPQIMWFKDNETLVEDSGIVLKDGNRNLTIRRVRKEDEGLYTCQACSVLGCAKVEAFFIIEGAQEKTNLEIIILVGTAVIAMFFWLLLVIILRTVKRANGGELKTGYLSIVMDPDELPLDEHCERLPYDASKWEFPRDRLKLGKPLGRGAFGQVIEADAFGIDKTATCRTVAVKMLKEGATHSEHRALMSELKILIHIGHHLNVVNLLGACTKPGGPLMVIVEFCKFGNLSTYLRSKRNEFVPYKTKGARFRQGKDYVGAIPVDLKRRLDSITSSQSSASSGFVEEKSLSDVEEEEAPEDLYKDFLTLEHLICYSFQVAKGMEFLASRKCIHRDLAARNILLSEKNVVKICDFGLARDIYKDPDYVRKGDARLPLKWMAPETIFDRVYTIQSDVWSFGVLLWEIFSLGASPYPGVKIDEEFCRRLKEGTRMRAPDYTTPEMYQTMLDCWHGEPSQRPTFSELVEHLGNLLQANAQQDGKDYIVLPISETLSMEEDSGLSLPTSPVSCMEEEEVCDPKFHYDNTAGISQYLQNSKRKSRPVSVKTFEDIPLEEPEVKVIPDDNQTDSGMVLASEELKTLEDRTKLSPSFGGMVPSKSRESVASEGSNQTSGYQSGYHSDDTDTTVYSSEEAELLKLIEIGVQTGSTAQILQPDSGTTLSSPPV
Epidermal growth factor receptor, sequence (P00533 whole entry): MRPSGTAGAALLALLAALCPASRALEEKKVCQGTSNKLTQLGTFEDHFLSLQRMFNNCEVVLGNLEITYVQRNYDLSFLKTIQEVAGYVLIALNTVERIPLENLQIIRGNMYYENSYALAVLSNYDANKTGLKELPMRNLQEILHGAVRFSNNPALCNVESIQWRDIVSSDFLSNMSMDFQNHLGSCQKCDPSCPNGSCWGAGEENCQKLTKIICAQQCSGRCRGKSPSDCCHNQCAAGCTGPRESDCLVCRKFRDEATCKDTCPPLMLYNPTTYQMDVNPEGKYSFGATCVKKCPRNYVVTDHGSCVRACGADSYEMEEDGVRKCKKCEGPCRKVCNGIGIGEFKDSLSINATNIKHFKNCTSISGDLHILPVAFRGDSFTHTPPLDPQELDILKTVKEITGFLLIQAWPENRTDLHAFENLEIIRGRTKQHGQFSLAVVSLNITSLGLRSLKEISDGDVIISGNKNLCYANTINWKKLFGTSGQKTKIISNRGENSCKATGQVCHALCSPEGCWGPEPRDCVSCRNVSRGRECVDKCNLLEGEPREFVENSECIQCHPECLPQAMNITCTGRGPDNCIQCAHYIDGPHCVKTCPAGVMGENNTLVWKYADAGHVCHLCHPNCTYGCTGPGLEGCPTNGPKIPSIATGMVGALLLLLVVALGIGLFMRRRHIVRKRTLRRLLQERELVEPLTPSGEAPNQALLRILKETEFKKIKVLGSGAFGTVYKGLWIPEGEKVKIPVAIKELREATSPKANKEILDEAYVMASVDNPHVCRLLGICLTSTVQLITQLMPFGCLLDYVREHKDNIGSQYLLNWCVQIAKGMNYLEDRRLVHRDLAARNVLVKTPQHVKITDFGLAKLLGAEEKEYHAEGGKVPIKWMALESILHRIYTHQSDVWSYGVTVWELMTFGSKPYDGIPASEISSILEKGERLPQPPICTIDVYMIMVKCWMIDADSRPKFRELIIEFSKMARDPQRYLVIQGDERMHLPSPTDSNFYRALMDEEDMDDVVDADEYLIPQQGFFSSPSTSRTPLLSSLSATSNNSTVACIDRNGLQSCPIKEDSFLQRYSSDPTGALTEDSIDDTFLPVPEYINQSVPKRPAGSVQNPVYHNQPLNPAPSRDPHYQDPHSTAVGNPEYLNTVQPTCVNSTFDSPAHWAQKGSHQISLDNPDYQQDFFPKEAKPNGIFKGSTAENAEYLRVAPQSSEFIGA
Fibroblast growth factor receptor 1, sequence (P11362 whole entry): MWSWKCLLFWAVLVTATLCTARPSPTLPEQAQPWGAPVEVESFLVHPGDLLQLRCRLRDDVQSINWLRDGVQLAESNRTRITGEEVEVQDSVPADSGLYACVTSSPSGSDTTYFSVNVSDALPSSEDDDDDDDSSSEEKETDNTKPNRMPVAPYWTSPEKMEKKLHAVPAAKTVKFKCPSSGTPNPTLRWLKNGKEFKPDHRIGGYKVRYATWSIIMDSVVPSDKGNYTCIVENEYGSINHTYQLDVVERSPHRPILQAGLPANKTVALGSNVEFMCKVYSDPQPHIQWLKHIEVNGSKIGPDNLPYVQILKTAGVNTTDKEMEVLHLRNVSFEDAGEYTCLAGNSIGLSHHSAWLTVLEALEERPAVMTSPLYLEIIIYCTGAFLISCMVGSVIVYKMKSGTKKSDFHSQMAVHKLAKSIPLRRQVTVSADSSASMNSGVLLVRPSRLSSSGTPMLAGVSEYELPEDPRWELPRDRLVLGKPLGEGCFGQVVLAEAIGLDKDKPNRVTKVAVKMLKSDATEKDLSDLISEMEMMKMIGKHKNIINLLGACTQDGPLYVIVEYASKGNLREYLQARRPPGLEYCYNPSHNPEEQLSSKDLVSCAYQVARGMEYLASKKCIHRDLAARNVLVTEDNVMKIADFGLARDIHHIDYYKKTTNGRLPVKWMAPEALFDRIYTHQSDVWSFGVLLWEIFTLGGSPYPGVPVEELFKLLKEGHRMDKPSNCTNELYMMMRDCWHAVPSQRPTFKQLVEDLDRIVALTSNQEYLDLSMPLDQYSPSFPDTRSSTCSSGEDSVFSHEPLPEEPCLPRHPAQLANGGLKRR

In general, pIC50 refers to the negative decadic logarithm of the IC50, by convention in mol/L. Low readings indicate a high IC50, high ones a low IC50. In the case of `Cc1[nH]c(/C=C2\C(=O)Nc3ccc(Br)cc32)c(C)c1CCC(=O)O`, the pIC50 in test [1] is 5.69; in test [2] it was < 4.00; in test [3], 7.22; in test [4], 5.76.
For the compound `COc1ccc2c(c1)NC(=O)/C2=C\c1[nH]cc(CCC(=O)O)c1C`, the negative logarithm of the IC50 (pIC50) is 5.41 in test [1], < 4.00 in test [2], 6.85 in test [3] and 5.87 in test [4].
Take `Cc1[nH]c(/C=C2\C(=O)Nc3ccccc32)c(C)c1CCC(=O)O` [ORANTINIB]: the pIC50 in test [3] is 7.22.
With `COc1ccc2c(c1)NC(=O)/C2=C\c1[nH]c(C)c(CCC(=O)O)c1C`, the negative-log IC50 (pIC50) in test [1] was 5.27; in test [2] it was < 4.00; in test [3], 6.26; in test [4], 5.08.
The like results for `COc1cccc(-c2ccc3c(c2)NC(=O)/C3=C\c2[nH]cc(CCC(=O)O)c2C)c1` were, in that order, 6.44, < 4.00, 6.77 and 7.05.
As to `COc1cccc(-c2ccc3c(c2)NC(=O)/C3=C\c2[nH]cc(C)c2CCC(=O)O)c1`, the values for the pIC50 in test [1], in test [2] and in test [3] were 5.92, < 4.00 and 6.35, respectively.
`Cc1c(CCC(=O)O)c[nH]c1/C=C1\C(=O)Nc2ccc(C(=O)O)cc21`: the negative-log IC50 (pIC50) in test [1] is 6.11; in test [2], < 4.00; in test [3], 5.38; in test [4], 6.62.
For `COc1cccc(-c2ccc3c(c2)NC(=O)/C3=C\c2[nH]c(C)c(CCC(=O)O)c2C)c1`, the pIC50 in test [1] was 5.85; in test [2] it was < 4.00; in test [3], 7.00; in test [4], 6.52.
Consider `Cc1c[nH]c(/C=C2\C(=O)Nc3cccc(C)c32)c1CCC(=O)O`, for which the pIC50 in test [2] was < 4.00.
For the compound `Cc1[nH]c(/C=C2\C(=O)Nc3ccc(S(N)(=O)=O)cc32)c(C)c1CCC(=O)O`, the pIC50 was 6.55 in test [1], 5.82 in test [3] and 5.90 in test [4].
In the case of `Cc1c(CCC(=O)O)c[nH]c1/C=C1\C(=O)Nc2ccc(S(N)(=O)=O)cc21`, the negative logarithm of the IC50 (pIC50) in test [1] is 6.34; in test [2] it was < 4.00; in test [3], 5.22; in test [4], 6.04.
For `Cc1[nH]c(/C=C2\C(=O)Nc3cc(-c4ccccc4)ccc32)c(C)c1CCC(=O)O`, the negative logarithm of the IC50 (pIC50) in test [1] is 5.64; in test [2], < 4.00; in test [3], 8.00; in test [4], 6.85.
In the case of `Cc1c(CCC(=O)O)c[nH]c1/C=C1\C(=O)Nc2cc(-c3ccccc3)ccc21`, the pIC50 in test [1] is 5.98; in test [2], < 4.00; in test [3], 6.80; in test [4], 6.52.
Take `Cc1[nH]c(/C=C2\C(=O)Nc3ccc(C(=O)O)cc32)c(C)c1CCC(=O)O`: the negative-log IC50 (pIC50) in test [1] was 6.55; in test [2], < 4.00; in test [3], 5.92; in test [4], 7.15.
The matching figures for `COc1ccccc1-c1ccc2c(c1)NC(=O)/C2=C\c1[nH]cc(CCC(=O)O)c1C`: 5.67, < 4.00, 5.85 and 5.83.
Turning to `Cc1c[nH]c(/C=C2\C(=O)Nc3ccc(Br)cc32)c1CCC(=O)O`, the pIC50 in test [2] is < 4.00.
For the compound `COc1ccc(-c2ccc3c(c2)NC(=O)/C3=C\c2[nH]cc(CCC(=O)O)c2C)cc1`, the negative logarithm of the IC50 (pIC50) was 5.81 in test [1], < 4.00 in test [2], 5.51 in test [3] and 6.35 in test [4].
For `Cc1c(CCC(=O)O)c[nH]c1/C=C1\C(=O)Nc2ccccc21`, the pIC50 was 5.43 in test [1], < 4.00 in test [2], 6.85 in test [3] and 5.67 in test [4].
The matching figures for `Cc1c[nH]c(/C=C2\C(=O)Nc3ccccc32)c1CCC(=O)O`: 7.52, < 4.00, 6.29 and 7.70.
As for `CCOc1cccc(-c2ccc3c(c2)NC(=O)/C3=C\c2[nH]cc(C)c2CCC(=O)O)c1`, the pIC50 in test [1] was 5.35; in test [2], < 4.00.
With `COc1ccc(-c2ccc3c(c2)NC(=O)/C3=C\c2[nH]c(C)c(CCC(=O)O)c2C)cc1`, the negative-log IC50 (pIC50) in test [1] was 5.24; in test [2], < 4.00; in test [3], 6.00; in test [4], 6.28.
The matching figures for `COc1ccccc1-c1ccc2c(c1)NC(=O)/C2=C\c1[nH]c(C)c(CCC(=O)O)c1C`: 5.13, < 4.00, 5.65 and 5.36.
